Assay results from US11643421B2, “Process for the preparation of tricyclic PI3K inhibitor compounds and methods for using the same for the treatment of cancer” (priority 2015, dated 2023).

Legend:
[1] = In vivo pharmacokinetics IV and PO; design: species or system Male Sprague-Dawley rats; settings: Rat
Experimental: The hepatocyte stability of compound IIIat was evaluated across preclinical species. Certain in vivo pharmacokinetic parameters were also evaluated. […] Male Sprague-Dawley rats, female CD-1 mice, male cynomolgus monkeys and beagle dogs were dosed intravenously with 1 mg/kg of compound IIIat prepared in 60% PEG400/10% Ethanol. Compound IIIat was administered orally (PO) at the indicated dose in 0.5% methylcellulose with 0.2% Tween 80 (MCT).

[2] = Phase I study, brain tumor and brain tissue concentration; assay type: in vivo, human; settings: concentration from brain tumor tissue, patients
[3] = biological target: T1, human BCRP (Homo sapiens, UniProt Q9UNQ0); assay: Transport assay in BCRP-MDCKII cell monolayers; assay type: in vitro ADME; settings: 2-hour incubation
T1 construct: host or cells: BCRP-MDCKII (canine kidney)
T1 sequence (Q9UNQ0 whole entry): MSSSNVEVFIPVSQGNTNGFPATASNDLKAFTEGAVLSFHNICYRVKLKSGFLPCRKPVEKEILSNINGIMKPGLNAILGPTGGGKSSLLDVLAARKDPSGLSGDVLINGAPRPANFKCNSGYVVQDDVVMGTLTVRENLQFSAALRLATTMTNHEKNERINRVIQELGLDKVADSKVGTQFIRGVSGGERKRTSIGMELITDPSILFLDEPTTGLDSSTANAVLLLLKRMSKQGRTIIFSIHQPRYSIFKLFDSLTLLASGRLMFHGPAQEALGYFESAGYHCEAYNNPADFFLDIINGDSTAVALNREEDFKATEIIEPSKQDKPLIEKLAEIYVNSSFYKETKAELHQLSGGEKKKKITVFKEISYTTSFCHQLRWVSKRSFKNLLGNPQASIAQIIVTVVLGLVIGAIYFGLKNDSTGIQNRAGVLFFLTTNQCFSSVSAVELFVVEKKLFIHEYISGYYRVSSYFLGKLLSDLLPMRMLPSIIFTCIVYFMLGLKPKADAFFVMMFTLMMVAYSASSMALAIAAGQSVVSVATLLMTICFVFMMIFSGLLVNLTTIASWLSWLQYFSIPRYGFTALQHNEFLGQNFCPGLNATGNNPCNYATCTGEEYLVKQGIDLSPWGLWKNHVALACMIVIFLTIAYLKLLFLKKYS
Experimental: MDR1-MDCKI cells were licensed from the NCI (National Cancer Institute, Bethesda, Md.) and Bcrp1-MDCKII, BCRP-MDCKII and Mdr1a-LLC-PK1 cells were obtained from the Netherlands Cancer Institute (Amsterdam. The Netherlands). […] The compound was dissolved in transport buffer consisting of Hank's balanced salt solution (HBSS) with 10 mM HEPES (Invitrogen Corporation, Grand Island, N.Y.). Lucifer Yellow (Sigma-Aldrich, St. Louis, Mo.) was used as the paracellular and monolayer integrity marker. […] The efflux ratio (ER) was calculated (Papp, B-A/Papp, A-B).

[4] = Plasma protein binding by equilibrium dialysis; assay type: in vitro ADME; settings: mouse, plasma (pooled), pH 7.4, n=3, mean±standard deviation, read-out: free fraction (%) in mouse plasma
Experimental: Plasma samples were equilibrated with phosphate-buffered saline (pH 7.4) at 37° C. in 90% humidity and 5% CO2 for 4 hours. […] Incubations were performed in triplicate. Parameters are presented as mean±standard deviation.

[5] = MALDI imaging of brain distribution, U87 orthotopic model; assay type: in vivo, female nude mice; settings: 15 mg/kg PO, 1 hour post dose
Experimental: (§1) Mice were euthanized at 1 and 6 hours post-dose via exsanguination by perfusion under anesthesia. Brains were excised, flash frozen in liquid N2 and stored in a −80° C. freezer until analyzed. Fresh frozen tissue sections were obtained on a cryomicrotome (Leica CM3050S, Buffalo Grove, Ill.) at 12 μm thickness and thaw-mounted onto indium tin oxide coated glass slides (Bruker Daltonics, Billerica, Mass.). Tissue sections were an analyzed by imaging MALDI MS, providing signal intensities (and not absolute quantitation), followed by cresyl violet staining for histological interrogation.
(§2) For MALDI MAS analysis, a 40 mg/mL solution of 2,5-dihydroxybenzoic acid (Sigma-Aldrich, St. Louis, Mo.) was prepared in methanol:water (70:30 v/v). […] Matrix solution was homogenously spray-coated onto the tissue using a HTX TM-Sprayer (HTX technologies. Chapel Hill, N.C.). Matrix-coated tissue sections were transferred to the MALDI mass spectrometer (SolariX 7T FT-ICR, Bruker Daltonics, Bremen, Germany) for imaging analysis. […] Laser intensity and number of shots were optimized for sensitivity of the parent drug (1200 shots) with ion detection collected over the mass range of m/z 150-3000.
Following completion of the imaging experiments, matrix coaling was removed by rinsing the glass slide in 100% methanol for 30 seconds or until the entire matrix was visibly removed. […] Microscope images were obtained on an Olympus BX51 (Tokyo, Japan) at 10× magnification and stitched using MicroSuite Analytical v3.0 software (Olympus, Tokyo, Japan). Subsequently, stained images were co-registered to the optical images in FlexImaging for visualization and annotation of tumor and non-tumor regions for the drug images.
To assess drug distribution, imaging MALDI MS data from U87 and GS2 tumor models were co-registered to the cresyl violet stained microscope images in FlexImaging Regions of interest (ROIs) that were selected based on the anatomical features defined in the histological image including tumor and non-tumor regions. Drug intensity for each pixel within the defined ROI was extracted and exported. […] Histogram plots were created in GraphPad Prism 5 to visualize the distribution of pixel intensity frequencies.

[6] = MALDI imaging of brain distribution, GS2 orthotopic model; assay type: in vivo, female nude mice; settings: 15 mg/kg PO, 1 hour post dose
Experimental: as §1, §2
Following completion of the imaging experiments, matrix coaling was removed by rinsing the glass slide in 100% methanol for 30 seconds or until the entire matrix was visibly removed. […]

[7] = tested on: pS6; assay: PI3K pathway modulation in GS2 tumors, western blot; assay type: in vivo, mice; settings: 15 mg/kg PO daily 4 weeks
[8] = tested on: TAO1; assay: Kinase panel; assay type: biochemical; settings: TAO1, 1 μM
[9] = biological target: CDK5/p25 (Homo sapiens, UniProt Q00535); assay: biochemical; settings: read-out: % inhib
CDK5/p25, sequence (Q00535 whole entry, species assumed): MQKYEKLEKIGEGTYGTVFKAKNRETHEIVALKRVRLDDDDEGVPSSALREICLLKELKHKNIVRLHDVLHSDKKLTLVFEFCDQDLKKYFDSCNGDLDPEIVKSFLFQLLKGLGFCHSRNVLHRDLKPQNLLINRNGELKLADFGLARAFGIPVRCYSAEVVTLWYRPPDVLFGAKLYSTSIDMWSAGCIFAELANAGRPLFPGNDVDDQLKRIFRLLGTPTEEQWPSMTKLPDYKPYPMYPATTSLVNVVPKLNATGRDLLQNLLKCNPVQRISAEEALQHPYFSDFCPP
CDK5/p25, sequence (Q15078 99-307 partner limits assumed, species assumed): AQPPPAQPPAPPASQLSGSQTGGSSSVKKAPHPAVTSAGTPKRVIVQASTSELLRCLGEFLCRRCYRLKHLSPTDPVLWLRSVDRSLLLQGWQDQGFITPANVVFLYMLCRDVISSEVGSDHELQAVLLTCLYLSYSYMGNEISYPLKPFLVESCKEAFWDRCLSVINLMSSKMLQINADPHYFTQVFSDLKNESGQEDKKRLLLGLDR

[10] = biological target: CDK9/cyclinT1 (Homo sapiens, UniProt P50750); assay: biochemical; settings: read-out: % inhib
CDK9/cyclinT1, sequence (P50750 whole entry, species assumed): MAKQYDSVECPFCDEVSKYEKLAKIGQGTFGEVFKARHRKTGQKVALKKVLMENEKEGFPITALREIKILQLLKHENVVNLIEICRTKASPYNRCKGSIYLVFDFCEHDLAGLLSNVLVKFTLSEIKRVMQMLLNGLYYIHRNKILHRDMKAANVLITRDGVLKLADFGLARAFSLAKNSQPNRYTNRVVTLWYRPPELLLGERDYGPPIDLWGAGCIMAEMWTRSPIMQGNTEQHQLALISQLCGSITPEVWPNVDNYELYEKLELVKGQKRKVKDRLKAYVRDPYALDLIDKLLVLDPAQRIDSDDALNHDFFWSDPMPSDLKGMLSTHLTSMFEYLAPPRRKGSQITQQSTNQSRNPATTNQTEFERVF
CDK9/cyclinT1, sequence (O60563 whole entry partner, species assumed): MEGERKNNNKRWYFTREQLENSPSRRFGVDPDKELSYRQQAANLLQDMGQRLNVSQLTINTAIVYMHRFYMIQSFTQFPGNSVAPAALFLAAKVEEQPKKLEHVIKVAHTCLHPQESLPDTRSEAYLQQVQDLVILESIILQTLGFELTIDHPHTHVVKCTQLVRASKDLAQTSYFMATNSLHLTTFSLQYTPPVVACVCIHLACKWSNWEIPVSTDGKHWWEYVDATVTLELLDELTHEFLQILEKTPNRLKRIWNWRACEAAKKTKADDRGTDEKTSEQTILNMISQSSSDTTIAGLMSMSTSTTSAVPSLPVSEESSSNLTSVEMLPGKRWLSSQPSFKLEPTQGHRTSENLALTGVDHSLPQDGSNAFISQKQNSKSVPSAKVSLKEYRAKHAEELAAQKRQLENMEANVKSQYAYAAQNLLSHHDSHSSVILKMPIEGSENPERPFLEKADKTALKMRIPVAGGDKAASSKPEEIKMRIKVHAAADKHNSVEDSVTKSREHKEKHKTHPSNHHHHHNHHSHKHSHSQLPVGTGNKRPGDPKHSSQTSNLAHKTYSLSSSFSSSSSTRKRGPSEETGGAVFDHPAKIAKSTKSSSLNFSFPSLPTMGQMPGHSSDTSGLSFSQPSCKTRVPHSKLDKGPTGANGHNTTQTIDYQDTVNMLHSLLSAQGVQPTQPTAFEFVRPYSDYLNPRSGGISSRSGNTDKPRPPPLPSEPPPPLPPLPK

[11] = biological target: CK1_gamma3 (Homo sapiens, UniProt Q9Y6M4); assay: biochemical; settings: read-out: % inhib
[12] = biological target: CLK3 (Homo sapiens, UniProt P49761); assay: biochemical; settings: read-out: % inhib
CLK3, sequence (P49761 whole entry, species assumed): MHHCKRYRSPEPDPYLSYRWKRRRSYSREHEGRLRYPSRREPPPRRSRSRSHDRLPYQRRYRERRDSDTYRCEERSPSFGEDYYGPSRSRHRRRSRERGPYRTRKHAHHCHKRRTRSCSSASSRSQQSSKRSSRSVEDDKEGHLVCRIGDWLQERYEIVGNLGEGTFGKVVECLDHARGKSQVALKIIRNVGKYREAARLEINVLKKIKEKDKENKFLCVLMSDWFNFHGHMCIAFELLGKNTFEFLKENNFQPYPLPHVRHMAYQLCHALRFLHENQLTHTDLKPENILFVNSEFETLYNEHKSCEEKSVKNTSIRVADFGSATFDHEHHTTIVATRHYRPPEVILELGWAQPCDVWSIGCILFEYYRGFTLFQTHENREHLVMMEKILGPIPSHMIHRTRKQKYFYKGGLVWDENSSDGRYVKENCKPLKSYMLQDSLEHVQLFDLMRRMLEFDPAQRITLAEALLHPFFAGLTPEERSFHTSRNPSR

[13] = biological target: EphB3 (Homo sapiens, UniProt P54753); assay: biochemical; settings: read-out: % inhib
EphB3, sequence (P54753 34-998): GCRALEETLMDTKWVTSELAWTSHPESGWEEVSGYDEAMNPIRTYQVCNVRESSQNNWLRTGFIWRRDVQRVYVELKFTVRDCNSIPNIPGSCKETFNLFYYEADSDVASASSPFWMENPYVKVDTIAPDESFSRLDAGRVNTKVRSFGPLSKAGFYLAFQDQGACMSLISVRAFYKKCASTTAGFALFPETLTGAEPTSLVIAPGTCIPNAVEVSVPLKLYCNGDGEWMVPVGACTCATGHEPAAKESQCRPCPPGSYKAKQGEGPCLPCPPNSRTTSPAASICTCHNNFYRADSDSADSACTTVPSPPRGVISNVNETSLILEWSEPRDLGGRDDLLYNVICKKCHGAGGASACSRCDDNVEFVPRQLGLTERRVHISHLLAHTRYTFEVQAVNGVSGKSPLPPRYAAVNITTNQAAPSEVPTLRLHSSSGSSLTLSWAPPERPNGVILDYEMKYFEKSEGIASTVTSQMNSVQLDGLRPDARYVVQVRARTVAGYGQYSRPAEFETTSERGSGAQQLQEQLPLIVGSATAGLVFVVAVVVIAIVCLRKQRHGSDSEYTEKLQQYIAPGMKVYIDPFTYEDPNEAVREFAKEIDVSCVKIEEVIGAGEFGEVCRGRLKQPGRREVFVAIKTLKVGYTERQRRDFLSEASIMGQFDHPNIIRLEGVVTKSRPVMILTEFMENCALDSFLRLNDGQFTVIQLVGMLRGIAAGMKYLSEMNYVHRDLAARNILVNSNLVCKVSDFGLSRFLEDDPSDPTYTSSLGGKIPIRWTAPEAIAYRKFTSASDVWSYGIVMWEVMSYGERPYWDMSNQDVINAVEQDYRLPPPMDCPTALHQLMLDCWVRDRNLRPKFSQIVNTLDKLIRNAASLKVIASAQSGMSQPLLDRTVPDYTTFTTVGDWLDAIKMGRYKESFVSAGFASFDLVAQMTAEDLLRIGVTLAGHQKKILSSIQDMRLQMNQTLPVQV

[14] = biological target: MST2 (Homo sapiens, UniProt Q13188); assay: biochemical; settings: read-out: % inhib
[15] = biological target: NEK7 (Homo sapiens, UniProt Q8TDX7); assay: biochemical; settings: read-out: % inhib
NEK7, sequence (Q8TDX7 whole entry): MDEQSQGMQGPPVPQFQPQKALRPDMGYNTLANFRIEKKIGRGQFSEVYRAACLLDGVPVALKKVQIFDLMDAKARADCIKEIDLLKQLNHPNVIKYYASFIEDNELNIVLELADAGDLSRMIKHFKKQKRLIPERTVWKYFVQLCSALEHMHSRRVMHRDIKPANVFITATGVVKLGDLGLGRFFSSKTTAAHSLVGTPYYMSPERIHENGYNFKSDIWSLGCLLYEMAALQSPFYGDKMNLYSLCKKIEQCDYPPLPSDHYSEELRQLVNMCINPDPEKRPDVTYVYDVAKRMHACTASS

[16] = biological target: PAK2 (Homo sapiens, UniProt Q13177); assay: biochemical; settings: read-out: % inhib
[17] = biological target: PhK_gamma2 (Homo sapiens, UniProt P15735); assay: biochemical; settings: read-out: % inhib
[18] = biological target: TBK1 (Homo sapiens, UniProt Q9UHD2); assay: biochemical; settings: read-out: % inhib
TBK1, sequence (Q9UHD2 whole entry, species assumed): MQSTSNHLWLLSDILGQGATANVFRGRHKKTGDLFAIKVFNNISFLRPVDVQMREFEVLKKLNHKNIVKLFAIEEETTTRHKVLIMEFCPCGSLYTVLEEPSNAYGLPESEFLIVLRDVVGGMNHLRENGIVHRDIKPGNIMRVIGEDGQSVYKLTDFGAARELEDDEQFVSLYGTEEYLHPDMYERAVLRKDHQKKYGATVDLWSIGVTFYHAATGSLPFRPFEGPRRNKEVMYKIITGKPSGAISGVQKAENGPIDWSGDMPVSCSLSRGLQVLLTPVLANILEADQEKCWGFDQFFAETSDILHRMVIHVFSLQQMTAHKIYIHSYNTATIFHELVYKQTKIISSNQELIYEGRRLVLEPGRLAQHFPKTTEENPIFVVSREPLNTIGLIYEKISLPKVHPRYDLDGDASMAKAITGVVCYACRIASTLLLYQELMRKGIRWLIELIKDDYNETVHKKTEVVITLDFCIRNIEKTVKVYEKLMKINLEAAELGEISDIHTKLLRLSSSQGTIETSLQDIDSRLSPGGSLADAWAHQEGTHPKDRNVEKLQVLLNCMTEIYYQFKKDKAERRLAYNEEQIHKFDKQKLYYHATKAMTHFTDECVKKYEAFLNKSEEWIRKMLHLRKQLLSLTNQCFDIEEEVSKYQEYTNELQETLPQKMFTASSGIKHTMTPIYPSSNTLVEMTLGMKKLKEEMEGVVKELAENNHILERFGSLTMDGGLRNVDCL

CC1(C)OCCn2c1nc1c(N3CCOCC3)nc(-c3cnc(N)nc3)nc12 [GDC-0084, 5-(6,6-dimethyl-4-morpholino-8,9-dihydro-6H-[1,4]oxazino[3,4-e]purin-2-yl)pyrimidin-2-amine]
In vivo Cl ([1]; IV 1 mg/kg): 28 mL/min/kg | Cmax ([1]; PO 5 mg/kg in MCT): 1.1 μm | F % ([1]; PO 5 mg/kg in MCT): 77% | blood brain barrier crossing and brain distribution [2]: crosses the blood brain barrier and uniformly distributes throughout the brain | Papp A→B at 2 h, 5 μM [3]: 23.2 ± 5.4 ×10⁻⁶ cm/s | Papp B→A at 2 h, 5 μM [3]: 16 ± 1.1 ×10⁻⁶ cm/s | fraction unbound at 4 h, 5 µM [4]: 0.295 ± 0.027 | distribution in brain and intracranial tumors (MALDI images) ([5]; U87 and GS2 models): distributed readily and quite evenly throughout the brain | mean pixel intensity (MALDI imaging) ([5]; U87 tumors): 0.54 | mean pixel intensity (MALDI imaging) ([5]; healthy brain of U87 tumor-bearing mice): 0.54 | mean pixel intensity (MALDI imaging) ([6]; GS2 tumors): 0.34 | mean pixel intensity (MALDI imaging) ([6]; normal brain of GS2 tumor-bearing mice): 0.55 | Suppression of pS6 in GS2 tumors ([7]; 2 hours after final administration): 35% | pS6 level in GS2 tumors ([7]; 8 hours post-dose): back to baseline levels | % inhib [8]: −1.3% | inhibition at 1 µM [9]: 0.3% | inhibition at 1 µM [10]: -0.9% | inhibition at 1 µM [11]: -0.2% | inhibition at 1 µM [12]: 7% | inhibition at 1 µM [13]: -0.1% | inhibition at 1 µM [14]: -2% | inhibition at 1 µM [15]: -0.3% | inhibition at 1 µM [16]: 3% | inhibition at 1 µM [17]: 0% | inhibition at 1 µM [18]: 4%
